# Data from ChEMBL document CHEMBL1255216, “Exploration of the amine terminus in a novel series of 1,2,4-triazolo-3-yl-azabicyclo[3.1.0]hexanes as selective dopamine D3 receptor antagonists” (J Med Chem, 2010).
# pIC50, pKi: −log10 of the molar value.
# Key:
# D(3) dopamine receptor = D(3) dopamine receptor (Homo sapiens, UniProt P35462); assay: Antagonist activity at human dopamine D3 expressed in CHO cells assessed as inhibition of quinelorane-induced [35S]GTPgammaS binding; type: functional, cell-based
# D(2) dopamine receptor = D(2) dopamine receptor (Homo sapiens, UniProt P14416); assay: Antagonist activity at human dopamine D2L receptor expressed in CHO cells assessed as inhibition of quinelorane-induced [35S]GTPgammaS binding; type: functional, cell-based
# [1] = biological target: Voltage-gated inwardly rectifying potassium channel KCNH2 (Homo sapiens, UniProt Q12809)
# Cytochrome P450 3A4 = Cytochrome P450 3A4 (Homo sapiens, UniProt P08684)
# Description: Inhibition of human CYP3A4
# Liver microsomes [2] = settings: rat, 0.5 h, 0.5 µM
# Cytochrome P450 1A2 = biological target: T1, Cytochrome P450 1A2 (Homo sapiens, UniProt P05177)
# T1 sequence (P05177 whole entry): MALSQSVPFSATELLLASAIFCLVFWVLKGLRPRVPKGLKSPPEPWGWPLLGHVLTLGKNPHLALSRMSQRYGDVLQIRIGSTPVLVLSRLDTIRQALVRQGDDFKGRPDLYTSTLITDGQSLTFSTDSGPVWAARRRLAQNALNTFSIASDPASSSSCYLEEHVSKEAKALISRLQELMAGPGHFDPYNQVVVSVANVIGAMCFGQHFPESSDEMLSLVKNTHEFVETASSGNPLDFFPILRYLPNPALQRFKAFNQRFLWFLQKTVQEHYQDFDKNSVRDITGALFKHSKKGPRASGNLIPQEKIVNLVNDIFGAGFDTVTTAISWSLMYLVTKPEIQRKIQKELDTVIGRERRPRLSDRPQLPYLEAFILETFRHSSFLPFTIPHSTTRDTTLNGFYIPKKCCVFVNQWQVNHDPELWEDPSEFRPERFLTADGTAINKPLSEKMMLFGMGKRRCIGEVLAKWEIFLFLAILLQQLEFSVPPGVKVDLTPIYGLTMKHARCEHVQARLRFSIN
# Description: Inhibition of human CYP1A2
# Liver microsomes [3] = settings: human, 0.5 h, 0.5 µM
# Cytochrome P450 2C9 = Cytochrome P450 2C9 (Homo sapiens, UniProt P11712)
# Description: Inhibition of human CYP2C9
# Cytochrome P450 2D6 = Cytochrome P450 2D6 (Homo sapiens, UniProt P10635)
# Description: Inhibition of human CYP2D6
# Cytochrome P450 2C19 = Cytochrome P450 2C19 (Homo sapiens, UniProt P33261)
# Cytochrome P450 2C19, sequence (P33261 whole entry): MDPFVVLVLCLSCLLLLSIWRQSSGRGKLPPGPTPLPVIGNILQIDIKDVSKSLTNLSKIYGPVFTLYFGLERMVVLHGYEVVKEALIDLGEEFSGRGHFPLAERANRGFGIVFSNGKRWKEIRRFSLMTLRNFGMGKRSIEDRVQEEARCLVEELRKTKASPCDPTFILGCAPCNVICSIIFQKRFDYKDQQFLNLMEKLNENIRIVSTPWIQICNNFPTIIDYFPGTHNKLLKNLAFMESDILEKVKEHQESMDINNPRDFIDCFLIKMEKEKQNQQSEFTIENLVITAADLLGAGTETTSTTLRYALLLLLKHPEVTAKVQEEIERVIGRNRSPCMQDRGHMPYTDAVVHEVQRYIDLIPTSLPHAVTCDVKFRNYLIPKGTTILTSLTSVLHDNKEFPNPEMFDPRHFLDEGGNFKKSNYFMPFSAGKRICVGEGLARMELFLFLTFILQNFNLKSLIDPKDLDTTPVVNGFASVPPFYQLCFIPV
# Description: Inhibition of human CYP2C19
# Cytochrome P450 3A4, sequence (P08684 whole entry): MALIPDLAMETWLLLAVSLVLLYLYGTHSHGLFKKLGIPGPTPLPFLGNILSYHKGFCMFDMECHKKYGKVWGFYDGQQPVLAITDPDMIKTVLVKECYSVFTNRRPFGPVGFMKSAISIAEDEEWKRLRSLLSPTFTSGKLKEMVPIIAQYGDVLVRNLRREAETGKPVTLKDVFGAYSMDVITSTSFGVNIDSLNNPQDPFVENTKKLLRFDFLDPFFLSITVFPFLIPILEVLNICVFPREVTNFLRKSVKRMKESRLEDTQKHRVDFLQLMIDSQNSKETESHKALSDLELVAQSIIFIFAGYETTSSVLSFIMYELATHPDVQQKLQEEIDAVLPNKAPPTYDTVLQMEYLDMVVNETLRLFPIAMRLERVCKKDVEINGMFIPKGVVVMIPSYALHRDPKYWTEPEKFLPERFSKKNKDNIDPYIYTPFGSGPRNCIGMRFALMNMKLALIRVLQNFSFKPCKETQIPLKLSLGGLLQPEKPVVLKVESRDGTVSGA
# Voltage-gated inwardly rectifying potassium channel KCNH2, sequence (Q12809 whole entry): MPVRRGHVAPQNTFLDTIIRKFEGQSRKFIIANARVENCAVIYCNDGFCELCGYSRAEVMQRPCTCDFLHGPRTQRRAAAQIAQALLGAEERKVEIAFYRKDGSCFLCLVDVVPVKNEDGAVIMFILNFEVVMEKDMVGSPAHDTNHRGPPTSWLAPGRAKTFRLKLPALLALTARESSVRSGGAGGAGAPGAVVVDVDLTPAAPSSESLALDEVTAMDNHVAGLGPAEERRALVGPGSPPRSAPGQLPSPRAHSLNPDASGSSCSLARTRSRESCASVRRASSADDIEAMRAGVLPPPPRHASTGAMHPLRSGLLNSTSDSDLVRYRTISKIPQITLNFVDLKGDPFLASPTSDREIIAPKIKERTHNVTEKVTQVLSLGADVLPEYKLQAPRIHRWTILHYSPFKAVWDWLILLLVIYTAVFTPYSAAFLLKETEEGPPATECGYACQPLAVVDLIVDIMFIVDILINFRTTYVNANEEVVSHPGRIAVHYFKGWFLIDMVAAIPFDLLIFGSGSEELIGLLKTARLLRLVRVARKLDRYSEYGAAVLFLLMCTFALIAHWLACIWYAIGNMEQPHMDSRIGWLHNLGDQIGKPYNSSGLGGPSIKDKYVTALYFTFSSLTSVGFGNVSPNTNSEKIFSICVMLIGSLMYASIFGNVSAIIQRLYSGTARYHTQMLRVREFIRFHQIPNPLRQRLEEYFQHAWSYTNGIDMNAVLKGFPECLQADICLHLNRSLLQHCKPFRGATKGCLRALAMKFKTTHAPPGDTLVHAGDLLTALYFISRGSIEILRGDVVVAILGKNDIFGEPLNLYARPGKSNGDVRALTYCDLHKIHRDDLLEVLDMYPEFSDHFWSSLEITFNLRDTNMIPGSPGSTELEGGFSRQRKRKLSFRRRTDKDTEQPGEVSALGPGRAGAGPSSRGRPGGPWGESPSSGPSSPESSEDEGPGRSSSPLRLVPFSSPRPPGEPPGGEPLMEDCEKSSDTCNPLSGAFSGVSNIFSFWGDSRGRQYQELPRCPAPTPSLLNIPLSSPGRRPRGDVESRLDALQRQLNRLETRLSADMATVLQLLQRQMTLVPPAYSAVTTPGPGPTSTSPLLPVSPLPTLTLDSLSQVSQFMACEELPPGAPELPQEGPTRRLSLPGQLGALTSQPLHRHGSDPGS
# D(2) dopamine receptor, sequence (P14416 whole entry): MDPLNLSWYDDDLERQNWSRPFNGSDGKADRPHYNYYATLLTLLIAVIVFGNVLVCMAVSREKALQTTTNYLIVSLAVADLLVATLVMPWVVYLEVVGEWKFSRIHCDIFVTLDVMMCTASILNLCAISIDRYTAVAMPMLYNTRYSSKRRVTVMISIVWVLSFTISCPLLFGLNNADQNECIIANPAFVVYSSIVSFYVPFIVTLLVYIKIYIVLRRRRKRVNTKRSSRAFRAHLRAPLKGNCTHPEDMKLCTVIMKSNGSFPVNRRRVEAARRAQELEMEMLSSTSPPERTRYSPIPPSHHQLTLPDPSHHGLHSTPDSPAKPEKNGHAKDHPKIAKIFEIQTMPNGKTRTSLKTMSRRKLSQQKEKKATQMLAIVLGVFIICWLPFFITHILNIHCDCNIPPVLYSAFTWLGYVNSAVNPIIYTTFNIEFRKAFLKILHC
# D(3) dopamine receptor, sequence (P35462 whole entry): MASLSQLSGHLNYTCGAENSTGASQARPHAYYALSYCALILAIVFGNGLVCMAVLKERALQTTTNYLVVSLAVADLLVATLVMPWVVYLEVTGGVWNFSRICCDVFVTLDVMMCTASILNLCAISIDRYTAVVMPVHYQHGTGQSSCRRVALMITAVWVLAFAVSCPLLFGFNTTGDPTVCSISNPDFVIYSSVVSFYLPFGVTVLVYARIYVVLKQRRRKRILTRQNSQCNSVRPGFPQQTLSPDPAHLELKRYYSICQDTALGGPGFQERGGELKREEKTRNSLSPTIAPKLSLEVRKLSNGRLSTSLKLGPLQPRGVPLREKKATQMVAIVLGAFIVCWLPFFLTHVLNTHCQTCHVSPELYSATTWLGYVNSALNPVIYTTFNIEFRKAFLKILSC
# Cytochrome P450 2C9, sequence (P11712 whole entry): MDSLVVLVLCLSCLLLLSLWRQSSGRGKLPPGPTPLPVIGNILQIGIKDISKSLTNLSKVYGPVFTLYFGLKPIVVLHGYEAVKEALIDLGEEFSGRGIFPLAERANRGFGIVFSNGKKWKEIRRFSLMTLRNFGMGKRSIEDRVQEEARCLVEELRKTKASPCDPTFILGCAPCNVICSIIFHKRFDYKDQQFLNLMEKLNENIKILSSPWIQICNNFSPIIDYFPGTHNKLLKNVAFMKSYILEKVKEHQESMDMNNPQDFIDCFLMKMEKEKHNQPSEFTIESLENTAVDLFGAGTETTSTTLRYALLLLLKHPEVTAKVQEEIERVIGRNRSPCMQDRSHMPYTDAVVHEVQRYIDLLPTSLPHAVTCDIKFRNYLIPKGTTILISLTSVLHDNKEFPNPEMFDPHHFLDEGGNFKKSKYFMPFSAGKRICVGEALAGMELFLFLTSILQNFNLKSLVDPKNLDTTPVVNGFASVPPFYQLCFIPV
# Cytochrome P450 2D6, sequence (P10635 whole entry): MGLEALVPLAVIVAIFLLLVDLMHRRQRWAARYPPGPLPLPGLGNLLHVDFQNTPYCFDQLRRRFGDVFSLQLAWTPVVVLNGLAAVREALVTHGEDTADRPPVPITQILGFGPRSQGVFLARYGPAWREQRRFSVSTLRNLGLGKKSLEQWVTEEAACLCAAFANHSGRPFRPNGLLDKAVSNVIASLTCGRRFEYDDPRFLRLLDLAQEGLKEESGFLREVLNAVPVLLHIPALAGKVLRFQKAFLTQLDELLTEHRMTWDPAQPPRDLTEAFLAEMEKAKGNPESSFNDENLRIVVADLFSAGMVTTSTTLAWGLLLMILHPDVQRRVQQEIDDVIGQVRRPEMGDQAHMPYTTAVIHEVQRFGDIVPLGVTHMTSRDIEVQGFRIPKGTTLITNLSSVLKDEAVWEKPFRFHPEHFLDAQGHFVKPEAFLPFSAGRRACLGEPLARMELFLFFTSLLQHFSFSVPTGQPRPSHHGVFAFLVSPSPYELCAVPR
Structure (SMILES),pKi (D(3) dopamine receptor),pKi (D(2) dopamine receptor),other results
Cc1ncoc1-c1nnc(SCCCN2CCC3(CCOc4ccccc43)C2)n1C (centres undefined),7.00,< 5.50,
Cc1ncoc1-c1nnc(SCCCN2CCC3(CCc4c(Br)cccc43)C2)n1C (centres undefined),8.10,6.60,
Cc1ncoc1-c1nnc(SCCCN2CCC3(c4ccc(C(F)(F)F)cc4)CC3C2)n1C (centres undefined),7.40,,
Cc1ncoc1-c1nnc(SCCCN2CCC3CC3(c3cccc(C(F)(F)F)c3)C2)n1C (centres undefined),7.90,,
Cc1nc(C)c(-c2nnc(SCCCN3CCC4(CCc5ccc(F)cc54)C3)n2C)s1 (centres undefined),7.30,6.40,pIC50 [1]: 5.20
Cc1ncoc1-c1nnc(SCCCN2CCC3CC3(c3ccccc3)C2)n1C (centres undefined),6.90,6.40,
Cc1ncoc1-c1nnc(SCCCN2CCC3(CCc4ccc(Br)cc43)C2)n1C (centres undefined),8.60,7.40,
Cc1ncoc1-c1nnc(SCCCN2CCC3(c4ccccc4)CC3C2)n1C (centres undefined),6.80,,
Cc1ncoc1-c1nnc(SCCCN2CCC3CC3(c3ccc(C(F)(F)F)cc3)CC2)n1C (centres undefined),8.40,7.00,
Cc1ncoc1-c1nnc(SCCCN[C@@H]2CC[C@]3(c4ccc(C(F)(F)F)cc4F)CC23)n1C (some centres undefined),8.50,6.70,pIC50 [1]: 6.20
Cc1ncoc1-c1nnc(SCCCN2CCC3(CCc4cc(Br)ccc43)C2)n1C (centres undefined),8.30,6.90,
Cc1ncoc1-c1nnc(SCCCN2[C@@H]3CC[C@H]2C[C@@H](c2ccc(C(F)(F)F)cc2)C3)n1C,8.00,6.40,
Cc1ncoc1-c1nnc(SCCCN[C@@H]2CC[C@]3(c4ccc(C(F)(F)F)cc4)CC23)n1C (stereo in doubt; 22),6.90,< 5.50,pIC50 [1]: 6.60
Cc1ncoc1-c1nnc(SCCCN2CCC3CC3(c3ccc(C(F)(F)F)cc3)C2)n1C (centres undefined),8.10,6.30,pIC50 [1]: 5.70
Cc1ncoc1-c1nnc(SCCCN2[C@@H]3CC[C@H]2C[C@@H](c2ccc(C(F)(F)F)cc2F)C3)n1C,8.20,< 5.50,
Cc1ncoc1-c1nnc(SCCCN2CCC3(CCCc4cc(Br)ccc43)C2)n1C (centres undefined),8.10,,

Structure (SMILES),pKi (D(3) dopamine receptor),pKi (D(2) dopamine receptor),other results
Cc1ncoc1-c1nnc(SCCCN[C@@H]2CC3C[C@]3(c3ccc(C(F)(F)F)cc3F)C2)n1C (some centres undefined),7.50,< 5.50,
CCOc1ccc2c(c1)Oc1cc(OCC)ccc1C21OC(=O)c2ccccc21 [DIETHOXYFLOURESCEIN],,,pIC50 (Cytochrome P450 3A4): 6.00
COc1ccc2c(c1)CCCC21CCN(CCCSc2nnc(-c3ocnc3C)n2C)C1 (centres undefined),7.00,6.00,
COc1cccc2c1CCCC21CCN(CCCSc2nnc(-c3ocnc3C)n2C)C1 (centres undefined),7.10,6.40,
Cc1ncoc1-c1nnc(SCCCN2CCC3(c4cccc(C(F)(F)F)c4)CC3C2)n1C (centres undefined),8.20,5.60,
Cc1ncoc1-c1nnc(SCCCN2CCC3(CCc4cc(F)ccc43)C2)n1C (centres undefined),6.80,7.00,
Cc1ncoc1-c1nnc(SCCCNC2CC3CC3(c3ccccc3)C2)n1C (centres undefined),7.30,6.60,
Cc1nc(C)c(-c2nnc(SCCCN3CCC4CC4(c4ccc(C(F)(F)F)cc4)CC3)n2C)o1 (centres undefined),8.00,,
Cc1ncoc1-c1nnc(SCCCN2CCC3(CCCc4ccc(Br)cc43)C2)n1C (centres undefined),7.80,6.50,
Cn1c(SCCCN2CCC3CC3(c3ccc(C(F)(F)F)cc3)CC2)nnc1-c1ccnnc1 (centres undefined),8.40,6.40,
COc1ccc2c(c1)C1(CCC2)CCN(CCCSc2nnc(-c3ocnc3C)n2C)C1 (centres undefined),7.50,,
"Cc1ncoc1-c1nnc(SCCCNC2CC[C@]3(c4ccc(C(F)(F)F)cc4)CC23)n1C (single isomer, unassigned)",6.60,< 5.50,pIC50 [1]: 5.60
Cc1nc(C)c(-c2nnc(SCCCN3CCC4(CCc5cc(Cl)ccc54)C3)n2C)s1 (centres undefined),7.50,6.40,pIC50 [1]: 5.60
Cc1ncoc1-c1nnc(SCCCN2[C@@H]3CC[C@H]2C[C@@H](c2ccc(C(C)(C)C)cc2)C3)n1C,9.20,6.40,pIC50 (Cytochrome P450 3A4): < 5.30; CL (Liver microsomes [2]): 7.9 mL/min/g; pIC50 (Cytochrome P450 1A2): < 5.30; CL (Liver microsomes [3]): 0.9 mL/min/g; pIC50 (Cytochrome P450 2C9): < 5.30; pIC50 (Cytochrome P450 2D6): < 5.30; pIC50 (Cytochrome P450 2C19): < 5.30
Cc1ncoc1-c1nnc(SCCCN[C@@H]2CC[C@]3(c4ccc(C(F)(F)F)cc4)CC23)n1C (stereo in doubt; 24),8.40,6.30,pIC50 [1]: 6.20; pIC50 (Cytochrome P450 3A4): < 5.40; CL (Liver microsomes [2]): < 0.5 mL/min/g; pIC50 (Cytochrome P450 1A2): < 5.40; CL (Liver microsomes [3]): < 0.5 mL/min/g; pIC50 (Cytochrome P450 2C9): < 5.40; pIC50 (Cytochrome P450 2D6): < 5.40; pIC50 (Cytochrome P450 2C19): < 5.40
Cc1nc(C)c(-c2nnc(SCCCN3CCC4CC4(c4ccc(C(F)(F)F)cc4)CC3)n2C)s1 (centres undefined),8.40,6.70,pIC50 [1]: 6.20
